The assay deals with Ubiquitin carboxyl-terminal hydrolase 28 (Homo sapiens) (UniProt Q96RU2). Put plainly: Ubiquitin-specific peptidase 28 DUB inhibitors, biochemical concentration-dependence assay, validation of primary screening hits (AID 1645866). To be noted: purified USP28, ubiquitin-rhodamine fluorescence, 30 min.

Molecules are shown by their SMILES. pIC50: −log10 of the molar value. Calls of active or inactive are those of the source.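 How the source made its calls: active means in confirmatory dose-response testing, peak deubiquitinase inhibition of 30% or more; inactive means the rest.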

Sequence of Ubiquitin carboxyl-terminal hydrolase 28 (Homo sapiens) (Q96RU2 whole entry, looked up): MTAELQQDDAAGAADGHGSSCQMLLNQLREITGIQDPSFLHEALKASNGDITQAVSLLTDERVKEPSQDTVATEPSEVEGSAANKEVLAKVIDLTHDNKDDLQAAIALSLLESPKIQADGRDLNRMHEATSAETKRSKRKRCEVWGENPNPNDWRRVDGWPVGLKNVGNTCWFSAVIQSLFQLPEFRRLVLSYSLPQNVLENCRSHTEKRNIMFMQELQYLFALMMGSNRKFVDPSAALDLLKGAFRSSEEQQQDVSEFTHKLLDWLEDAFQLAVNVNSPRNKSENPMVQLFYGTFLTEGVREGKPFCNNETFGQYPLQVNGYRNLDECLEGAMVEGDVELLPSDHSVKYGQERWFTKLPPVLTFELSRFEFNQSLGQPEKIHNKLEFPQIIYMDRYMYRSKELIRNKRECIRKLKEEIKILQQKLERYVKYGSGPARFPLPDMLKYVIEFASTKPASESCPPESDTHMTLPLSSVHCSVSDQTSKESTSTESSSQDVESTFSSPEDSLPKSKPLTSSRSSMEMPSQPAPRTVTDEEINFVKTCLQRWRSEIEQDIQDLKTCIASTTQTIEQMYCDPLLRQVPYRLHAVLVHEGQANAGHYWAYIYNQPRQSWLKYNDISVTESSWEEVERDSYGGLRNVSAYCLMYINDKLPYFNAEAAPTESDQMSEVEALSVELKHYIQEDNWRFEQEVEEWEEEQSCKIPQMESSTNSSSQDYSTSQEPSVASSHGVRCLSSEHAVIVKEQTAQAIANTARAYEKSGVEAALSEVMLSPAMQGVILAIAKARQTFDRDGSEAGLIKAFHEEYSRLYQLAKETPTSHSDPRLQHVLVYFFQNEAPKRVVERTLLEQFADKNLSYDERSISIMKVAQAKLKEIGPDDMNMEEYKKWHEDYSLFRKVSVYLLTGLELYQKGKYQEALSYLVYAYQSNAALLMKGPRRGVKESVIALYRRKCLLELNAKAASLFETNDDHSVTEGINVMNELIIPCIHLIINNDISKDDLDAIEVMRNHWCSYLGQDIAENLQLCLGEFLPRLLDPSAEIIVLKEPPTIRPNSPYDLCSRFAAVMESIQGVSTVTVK

The pIC50 is −log10 of the IC50, conventionally taken in molar units. Consider `CC1CC(=O)c2c(cc3c(-c4c(O)cc(O)c5c(O)c6c(cc45)OC(C)CC6=O)c(O)cc(O)c3c2O)O1` (centres undefined), for which the pIC50 was 4.68.
Turning to `Cc1ccc(C(=O)c2cn(CC(=O)Nc3ccccc3)c3ccc(C)cc3c2=O)cc1`, the pIC50 is 5.22.
The IC50 is the concentration that inhibits the measured activity by half. With `Cn1nc(-c2nc(-c3ccccc3)no2)c2c1CCN(C(=O)C1CC1)C2`, the IC50 was > 50 µM (inactive).
For `O=C(CC1C(=O)N(Cc2ccccc2)c2nc3ccccc3n21)NCCc1ccccc1` (centres undefined), the pIC50 is 4.80.
As to `O=C(Cc1cc(-c2ccc(F)cc2)on1)NCc1ccccc1`, the pIC50 was 4.66.
With `Nc1c(C(=O)c2cccs2)oc2nc(-c3ccccc3)cc(-c3ccco3)c12`, the IC50 is > 50 µM (inactive).
Turning to `C[C@]12C(=O)N(c3ccc(C(=O)NCc4ccc(F)cc4)cc3)C(=O)N1CCc1c2[nH]c2ccccc12`, the pIC50 is 4.39.
The same measure, in the same setting: in the case of `N#Cc1cccc(S(=O)(=O)N2CCc3nc4ccccc4n3CC2)c1` it was 4.66; in that of `Cc1ccc(CNC(=O)CCCn2c(=O)c3sccc3n(CC(=O)Nc3cc(Cl)ccc3C)c2=O)cc1`, 5.54.
Take `O=C(Cc1ccc(Cl)c(Cl)c1)OCC(=O)c1c[nH]c2ccccc12`: the IC50 is > 50 µM (inactive).
`COCCCn1c(C(=O)Nc2ccccc2OC)cc2c(=O)n3ccccc3nc21`: the pIC50 is 4.52.
For `FC(F)(F)c1ccccc1CCN1CCc2nc3ccc(Cl)cc3cc2C1`, the IC50 is > 50 µM (inactive).
Turning to `Oc1sc(C=Nc2cc(Cl)ccc2Cl)c2ccccc12`, the pIC50 was 5.53.
In the case of `NS(=O)(=O)c1cccc(NC(=O)CN2CCCc3ccccc32)c1`, the IC50 was > 50 µM (inactive).
Still for that read-out and setting: the figure for `CN(C(=O)c1ccncc1)[C@H]1CC[C@@]2(C)C[C@H](c3ccccc3)C[C@](C)(O2)[C@@H]1O` is > 50 µM (inactive).
`O=C(CSc1nc2ccncc2[nH]1)Nc1ccc(Br)cc1F`: the pIC50 is 4.58.
Regarding `O=C(Cn1ccc2ccc(N3CCOCC3)nc21)NCc1ccccc1F`, the IC50 is > 50 µM (inactive).
Regarding `CCOC(=O)c1sc2c(c1C)c(=O)n(Cc1ccccc1)c(=O)n2CC(N)=O`, the pIC50 was 4.65.
Take `CCCC(=O)N1CCC2(CC1)Nc1ccccc1NC2=O`: the IC50 is > 50 µM (inactive).
On the same count and under the same terms, in the case of `O=S1(=O)CCN(CC2CCCO2)c2c(Oc3ccccc3)nc(F)c(Cl)c21` (centres undefined) it was > 50 µM (inactive).
As for `O=C(NCc1ccc(Cl)cc1)Nc1cccc2ccccc12`, the pIC50 was 4.39.
Still for that read-out and setting: the figure for `CCc1cccc2c(C(=O)COc3ccc(C#N)cc3)c[nH]c12` is 4.82.
On the same count and under the same terms, the figure for `Cc1ccc(-c2cn(CC(=O)N3CCN(c4ccccn4)CC3)c(=O)o2)cc1` is 4.78; for `CCCn1c(=O)c(-c2ccc(C(=O)NCc3ccc(OC)cc3)cc2)nc2cccnc21` it is 5.74.
For `CC(C)N1C[C@@H]2C[C@H](NS(=O)(=O)c3cccc(C#N)c3)CN2Cc2ccccc21`, the IC50 is > 50 µM (inactive).
For the compound `CCCc1nc2sc3c(NCc4ccco4)ncnc3c2c2c1CCC2`, the pIC50 is over 7.30.
Regarding `O=C(c1cc(-c2ccncc2)n[nH]1)N1CCC(C(=O)N2CC=C(c3ccccc3)CC2)CC1`, the pIC50 was 4.61.
As for `O=C(O)c1nccnc1C(=O)N1CCc2ccccc2C1`, the IC50 was > 50 µM (inactive).
Regarding `COc1ccc(N2CCN(Cc3nnnn3Cc3ccc4c(c3)OCO4)CC2)cc1`, the IC50 was > 50 µM (inactive).
Turning to `O=c1c2ccccc2oc2nc(-c3cccs3)n(-c3ccccc3)c(=O)c12`, the pIC50 is 5.67.
For the compound `O=c1c(NCCCN2CCCC2)nc2ccncc2n1Cc1ccccc1`, the IC50 was > 50 µM (inactive).
On to `O=c1[nH]c(-c2ccccn2)nc2c1CCN(Cc1cnn(-c3ccccc3)c1)C2`, for which the IC50 was > 50 µM (inactive).
Turning to `C[C@@]12c3ccc4c(c3C(=O)c3occ(c31)C(O)C[C@H]2O)CCC4=O` (some centres undefined), the IC50 was > 50 µM (inactive).
In the case of `O=C1c2c(O)cccc2C2(Oc3cccc4cccc(c34)O2)C2OC12` (centres undefined), the negative logarithm of the IC50 (pIC50) is 4.70.
On to `Cc1ccc(C)c(-n2c(C)cc(/C=C3/C(=N)N4C(c5ccc(F)cc5)=CSC4=NC3=O)c2C)c1`, for which the IC50 was > 50 µM (inactive).
For `N#Cc1ccc(NC(=O)Nc2cccn(Cc3ccccc3Br)c2=O)cc1`, the pIC50 is 5.36.
For the compound `O=C(CSc1nnnn1-c1ccccc1)Nc1ccccc1`, the pIC50 was 4.40.
On the same count and under the same terms, in the case of `Cc1ccc2nc(CNC(=O)c3ccccc3-c3nc(-c4ccc(F)cc4)no3)[nH]c2c1` it was 4.41.
In the case of `COc1ccccc1NS(=O)(=O)c1ccc2oc(SCC(=O)c3ccccc3)nc2c1`, the IC50 was > 50 µM (inactive).
On the same count and under the same terms, the figure for `CCc1nc(-c2cc(C(=O)N3CCOCC3)c3ccccn23)cs1` is > 50 µM (inactive); for `COc1ccc2c(c1)c(N1CCCC1=O)c(C(=O)NCc1cccc(OC)c1OC)n2C` it is > 50 µM (inactive).
Regarding `Cc1cc(=O)n(CC(=O)Nc2ccccc2F)c(Nc2ccc(F)cc2)n1`, the pIC50 is 4.84.
In the case of `Cc1cc(N2CCC(NC(=O)NCc3ccc(F)cc3)C2=O)ccc1F` (centres undefined), the pIC50 is 4.82.
Regarding `COc1ccccc1-c1ccc(CN2[C@@H](c3ccccc3)C[C@@H]3NC(=O)CCC[C@H]32)cc1`, the IC50 was > 50 µM (inactive).
In the case of `O=C(Nc1cc(F)c2nc(N3CCOCC3)ccc2c1)c1ccc(Br)o1`, the pIC50 was 4.43.
Same read-out and setting: the figure for `COc1ccc(NC(=O)c2nnc(C(=O)NCCN3CCCCCC3)s2)cc1` is 4.91; for `O=C(COC(=O)c1cc(Cl)c2c(c1)OCO2)Nc1ccc2[nH]c(=O)[nH]c2c1` it is 5.53; for `COCCNC(=O)c1ccc(-c2ccc(N3CCCCC3)nc2)cc1` it is 4.71.
On to `Cn1c2ccccc2c(=O)c2c(=O)n(Cc3ccccc3)c(-c3ccccc3F)nc21`, for which the pIC50 is 6.97.
`COc1cccc(N2CCN(c3ccc4nnc(CCC(=O)N5CCc6ccccc6C5)n4n3)CC2)c1`: the pIC50 is 4.64.
With `COc1cccc(N2CCN(C(=O)Nc3ccc4c(c3)NC(=O)CO4)CC2)c1`, the pIC50 is 4.71.
With `COCCNC(=O)c1ccnn1-c1ccc2ccc(-c3cccnc3)cn12`, the IC50 is > 50 µM (inactive).
Regarding `Cc1ccc(N=Cc2sc(O)c3ccccc23)c(C)c1`, the IC50 is > 50 µM (inactive).
Turning to `COc1cccc(CNC(=O)c2ccc(CSc3nc4ccncc4n3Cc3ccccc3F)cc2)c1`, the pIC50 was 4.56.
For `CCOC(=O)c1cc2c(ccn2C)n1Cc1cccc2ccccc12`, the IC50 is > 50 µM (inactive).
`Cc1ccc(-c2cnc(C3CC3)o2)cc1S(=O)(=O)Nc1ccc(F)c(Cl)c1`: the negative-log IC50 (pIC50) was 4.49.
Still for that read-out and setting: the figure for `CCCc1nc2c(sc3nc4c(cc32)COC(C)(C)C4)c(=O)n1CC(=O)Nc1ccccc1C` is 4.66.
`COc1cccc(N2CCN(C(=O)C3CCN(c4nc(NC(C)=O)ns4)CC3)CC2)c1`: the IC50 is > 50 µM (inactive).
The same measure, in the same setting: in the case of `O=C(Cn1ncc2c(N3CCCCCC3)ncnc21)NCc1ccccc1` it was > 50 µM (inactive).
Take `Cc1ccc(CNC(=O)Cn2cnc3c(cnn3-c3cccc(Cl)c3)c2=O)cc1`: the pIC50 was 5.59.
In the case of `Cc1ccc2c(c1)N(C)C(=O)c1cc(NC(=O)c3ccc(F)cc3)ccc1O2`, the pIC50 was 5.38.
Still for that read-out and setting: in the case of `FC(F)(F)c1cccc(CSc2ccc3nnc(-c4ccccn4)n3n2)c1` it was 5.76; in that of `CC1=C(c2ccc(F)cc2)S(=O)(=O)NC1=NCC(=O)Nc1cccc(F)c1`, 4.31; in that of `Cc1ccccc1Cc1nc(-c2ccc(=O)[nH]c2)no1`, 6.02.

The values are drawn from PubChem BioAssay AID1645866 (Buhrlage Lab, Dana-Farber Cancer Institute and Novartis …, 2021).
